# Assay results as given in ChEMBL document CHEMBL3508693 (2016).
# What was measured:
# CYP2C9 [1] = biological target: T1, CYP2C9 (Homo sapiens, UniProt P11712); assay: Inhibition of CYP2C9 in human liver microsomes from 10 healthy donors at 200 uM aliskiren (SPP100); format: ADME, Microsome; parameters: conc 200 uM; details: probe S-warfarin (7-hydroxylation)
# CYP2C9 [2] = biological target: T1, CYP2C9; assay: Inhibitory activity of 20 uM SPP100 on 258 Pmoles of cDNA-derived CYP2C9 enzyme in microsome prepared from human lymphoblastoid cell line; format: ADME, microsomes; parameters: conc 20 uM, interact cpd conc 6 uM; details: probe diclofenac
# CYP2A6 = biological target: T2, CYP2A6 (Homo sapiens, UniProt P11509); assay: Inhibitory activity of 200 uM SPP100 on 37 Pmoles of cDNA-derived CYP2A6 enzyme in microsome prepared from human lymphoblastoid cell line; format: ADME, microsomes; parameters: conc 200 uM, interact cpd conc 3 uM; details: probe coumarine
# T2 sequence (P11509 whole entry): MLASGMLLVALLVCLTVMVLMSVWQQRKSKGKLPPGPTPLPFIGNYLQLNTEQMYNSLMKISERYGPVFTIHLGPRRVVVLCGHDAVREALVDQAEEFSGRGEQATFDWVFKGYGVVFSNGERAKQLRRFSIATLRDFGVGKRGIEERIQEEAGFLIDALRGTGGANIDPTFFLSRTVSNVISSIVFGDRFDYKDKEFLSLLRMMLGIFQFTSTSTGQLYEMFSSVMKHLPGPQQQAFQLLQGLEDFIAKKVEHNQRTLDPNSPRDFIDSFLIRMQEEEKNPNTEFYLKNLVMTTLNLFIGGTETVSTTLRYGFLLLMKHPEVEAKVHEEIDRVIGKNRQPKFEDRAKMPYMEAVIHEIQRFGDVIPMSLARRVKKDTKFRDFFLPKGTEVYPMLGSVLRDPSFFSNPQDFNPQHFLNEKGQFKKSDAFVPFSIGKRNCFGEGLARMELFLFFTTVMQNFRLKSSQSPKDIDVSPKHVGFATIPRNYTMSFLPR
# CYP2C19 = CYP2C19 (Homo sapiens, UniProt P33261); assay: Inhibitory activity of 200 uM SPP100 on 1077 Pmoles of cDNA-derived CYP2C19 enzyme in microsome prepared from human lymphoblastoid cell line; format: ADME, microsomes; parameters: conc 200 uM, interact cpd conc 50 uM; details: probe (S)-mephenytoin (50 uM)
# Chain of CYP2C19 (P33261 whole entry): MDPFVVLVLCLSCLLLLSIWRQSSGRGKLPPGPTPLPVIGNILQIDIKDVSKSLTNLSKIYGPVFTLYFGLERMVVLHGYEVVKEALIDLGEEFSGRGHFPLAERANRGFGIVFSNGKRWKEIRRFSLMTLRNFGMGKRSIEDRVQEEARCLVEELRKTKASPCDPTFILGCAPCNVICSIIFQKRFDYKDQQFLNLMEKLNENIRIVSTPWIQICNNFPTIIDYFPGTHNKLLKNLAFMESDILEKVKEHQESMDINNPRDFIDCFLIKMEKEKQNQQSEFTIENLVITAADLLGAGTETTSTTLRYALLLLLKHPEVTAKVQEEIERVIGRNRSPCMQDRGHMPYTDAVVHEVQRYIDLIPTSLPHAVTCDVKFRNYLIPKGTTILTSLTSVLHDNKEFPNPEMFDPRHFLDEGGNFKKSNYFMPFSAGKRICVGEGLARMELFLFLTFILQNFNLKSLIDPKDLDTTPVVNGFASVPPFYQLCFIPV
# [3] = % SPP100 recovered in urine following single intravenous administration of 10 mg.Kg-1 [14C] aliskiren hemifumarate in male rat; format: ADME, organism-based, HAN:WIST(SPF); details: in vivo
# [4] = Concentration of radioactivity in the brown fat following repeated oral administration of [14C] aliskiren hemifumarate at 100 mg.Kg-1 level studied at 2h after 7th dose in rat; format: ADME, organism-based, Albino HAN:WIST, Brown adipose tissue; details: in vivo
# [5] = AUC/dose (0-168h) of total radioactivity following single intravenous administration of [14C] aliskiren hemifumarate at 1 mg.Kg-1 level in marmoset; format: ADME, organism-based, Callithrix jacchus, Plasma; details: in vivo
# [6] = Cmax of [14C] aliskiren hemifumarate following single oral dose of [14C] aliskiren hemifumarate at 500 mg.Kg-1 level in mouse; format: ADME, organism-based, TgRasH2, Plasma; details: in vivo
# [7] = Excretion of radioactivity (0-24h) in faeces following single oral dose of 100 mg.Kg-1 [14C] aliskiren hemifumarate in rat; format: ADME, organism-based, Albino HAN:WIST, Feces; details: in vivo
# [8] = Excretion of radioactivity (48-72h) in urine following single oral dose of 100 mg.Kg-1 [14C] aliskiren hemifumarate in rat; format: ADME, organism-based, Albino HAN:WIST; details: in vivo
# [9] = Faecal elimination of aliskiren following single oral dose of [14C] aliskiren hemifumarate at 500 mg.Kg-1 level in mouse; format: ADME, organism-based, TgRasH2, Feces; details: in vivo
# [10] = Cmax of radioactivity following repeated oral administration of [14C] aliskiren hemifumarate at 100 mg.Kg-1 level studied after 2h of dosing on day 1 in rat; format: ADME, organism-based, Albino HAN:WIST; details: in vivo, read-out: Cmax(1)
# [11] = Biliary elimination of aliskiren following single intravenous dose of [14C] aliskiren hemifumarate at 10 mg.Kg-1 level in mouse; format: ADME, organism-based, TgRasH2, Bile; details: in vivo
# [12] = Excretion of radioactivity (48-72h) in urine following single intravenous dose of 10 mg.Kg-1 [14C] aliskiren hemifumarate in rat; format: ADME, organism-based, Albino HAN:WIST; details: in vivo
# [13] = Excretion (0-24h) of radioactivity in urine following oral administration of [14C] aliskiren hemifumarate at 3 mg.Kg-1 level in marmoset; format: ADME, organism-based, Callithrix jacchus; details: in vivo
# [14] = Excretion of radioactivity (72-96h) in urine following single oral dose of 100 mg.Kg-1 [14C] aliskiren hemifumarate in rat; format: ADME, organism-based, Albino HAN:WIST; details: in vivo
# [15] = AUCspec of aliskiren hemifumarate following 2 week oral dosing of aliskiren hemifumarate at 100 mg.Kg-1 level studied on day 14 in male Callithrix jacchus; format: ADME, organism-based, Plasma; details: marmoset, in vivo, 336 h
# [16] = Effect of 2 week oral dosing of aliskiren hemifumarate at 10 mg.Kg-1 level on blood urea nitrogen level in female Callithrix jacchus; format: toxicity, organism-based, Plasma; details: marmoset, 336 h
# [17] = AUC of aliskiren hemifumarate following single dosing of SPP100B oral solution at 80 mg level studied on day 1 in men; format: ADME, organism-based; details: male, human, plasma
# [18] = Cmax of aliskiren hemifumarate following 8 day once-daily dosing of SPP100B oral solution at 40 mg level studied on day 8 in men; format: ADME, organism-based; details: male, human, plasma
# [19] = Effect of 4 week oral dietary dosing of aliskiren hemifumarate at 1500 mg.Kg-1 level on spermatogenesis in male mouse; format: toxicity, organism-based, CB6F1-TGrasH2, Testis; details: in vivo, 672 h
# [20] = AUC(0-24h) of aliskiren hemifumarate following 2 week oral dosing of aliskiren hemifumarate at 100 mg.Kg-1 level studied on day 1 in male Callithrix jacchus; format: ADME, organism-based; details: marmoset, plasma
# [21] = Cmax of aliskiren hemifumarate following 4 week oral dietary dosing of aliskiren hemifumarate at 1000 mg.Kg-1 level in female mouse; format: ADME, organism-based; details: CB6F1-TGrasH2, mouse, in vivo
# [22] = Cmaxspec of aliskiren hemifumarate following 2 week oral dosing of aliskiren hemifumarate at 10 mg.Kg-1 level studied on day 14 in female Callithrix jacchus; format: ADME, organism-based, Plasma; details: marmoset, in vivo, 336 h
# [23] = Tmax (0-168h) of unlabeled aliskiren hemifumarate following single intravenous administration of aliskiren hemifumarate at 1 mg.Kg-1 level in marmoset; format: ADME, organism-based, Callithrix jacchus; details: plasma
# [24] = Effect of 4 week oral dietary dosing of aliskiren hemifumarate at 2000 mg.Kg-1 level on spermatogenesis in male mouse; format: toxicity, organism-based, CB6F1-TGrasH2, Testis; details: in vivo, 672 h
# [25] = Tmax (0-96h) of unlabeled aliskiren hemifumarate following intravenous administration of aliskiren hemifumarate at 10 mg.Kg-1 level in rat; format: ADME, organism-based; details: Albino HAN:WIST, plasma
# hERG (KCNH2) = hERG (KCNH2) (Homo sapiens, UniProt Q12809); assay: Effects of 100 uM aliskiren hemifumarate on current through cloned hERG channel expressed in human embryonic kidney cell; format: cell-based; parameters: conc 100 uM, dose level Intermediate; details: HEK293 cells that express cloned hERG channel, read-out: Inhibitory activity
# Chain of hERG (KCNH2) (Q12809 whole entry): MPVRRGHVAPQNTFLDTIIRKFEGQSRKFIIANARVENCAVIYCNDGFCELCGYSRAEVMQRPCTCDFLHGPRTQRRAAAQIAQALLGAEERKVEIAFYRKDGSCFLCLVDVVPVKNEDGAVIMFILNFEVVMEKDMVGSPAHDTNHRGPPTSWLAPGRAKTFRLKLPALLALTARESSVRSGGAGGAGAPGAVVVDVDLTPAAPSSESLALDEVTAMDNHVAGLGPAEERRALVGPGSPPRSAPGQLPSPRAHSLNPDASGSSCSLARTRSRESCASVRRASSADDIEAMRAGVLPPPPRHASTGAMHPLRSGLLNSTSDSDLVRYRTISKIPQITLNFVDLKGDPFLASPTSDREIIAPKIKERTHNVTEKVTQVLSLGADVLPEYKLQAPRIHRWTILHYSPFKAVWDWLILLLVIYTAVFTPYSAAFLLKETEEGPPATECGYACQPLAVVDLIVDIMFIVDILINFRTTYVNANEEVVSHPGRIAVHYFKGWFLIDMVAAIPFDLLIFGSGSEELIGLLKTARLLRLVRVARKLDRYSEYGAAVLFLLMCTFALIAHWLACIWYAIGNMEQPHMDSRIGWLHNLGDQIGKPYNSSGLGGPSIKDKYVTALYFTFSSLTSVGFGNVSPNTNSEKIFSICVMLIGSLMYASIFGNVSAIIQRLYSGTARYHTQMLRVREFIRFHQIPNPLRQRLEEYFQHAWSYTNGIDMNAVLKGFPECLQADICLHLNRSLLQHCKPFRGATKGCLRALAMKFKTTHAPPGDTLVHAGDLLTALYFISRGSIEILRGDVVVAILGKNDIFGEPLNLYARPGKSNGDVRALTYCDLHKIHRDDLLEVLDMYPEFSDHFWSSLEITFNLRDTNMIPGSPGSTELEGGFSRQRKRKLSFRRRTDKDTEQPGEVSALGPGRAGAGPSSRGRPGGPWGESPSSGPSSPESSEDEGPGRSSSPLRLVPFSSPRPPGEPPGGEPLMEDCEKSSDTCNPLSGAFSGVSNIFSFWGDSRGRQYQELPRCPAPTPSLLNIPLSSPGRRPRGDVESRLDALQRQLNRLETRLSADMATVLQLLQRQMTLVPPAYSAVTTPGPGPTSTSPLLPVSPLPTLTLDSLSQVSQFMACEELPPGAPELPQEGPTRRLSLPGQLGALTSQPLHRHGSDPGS
# [26] = Apparent terminal half-life (0-168h) of unlabeled aliskiren hemifumarate following single intravenous administration of aliskiren hemifumarate at 1 mg.Kg-1 level in marmoset; format: ADME, organism-based, Callithrix jacchus; details: plasma
# [27] = Tmax of aliskiren hemifumarate following 8 day once-daily dosing of SPP100B oral solution at 160 mg level studied on day 8 in men; format: ADME, organism-based; details: male, human, plasma
# [28] = AUC (0-24h)/dose of aliskiren hemifumarate following 4 week oral dietary dosing of aliskiren hemifumarate at 1000 mg.Kg-1 level in female mouse; format: ADME, organism-based, CB6F1-TGrasH2, Plasma; details: in vivo
# [29] = AUC infinity of aliskiren hemifumarate following 2 week oral dosing of aliskiren hemifumarate at 100 mg.Kg-1 level studied on day 1 in male Callithrix jacchus; format: ADME, organism-based; details: marmoset, plasma, read-out: AUC infinity
# [30] = Tmax (0-96h) of unlabeled aliskiren hemifumarate following oral administration of aliskiren hemifumarate at 100 mg.Kg-1 level in rat; format: ADME, organism-based; details: Albino HAN:WIST, plasma
# T1 sequence (P11712 whole entry): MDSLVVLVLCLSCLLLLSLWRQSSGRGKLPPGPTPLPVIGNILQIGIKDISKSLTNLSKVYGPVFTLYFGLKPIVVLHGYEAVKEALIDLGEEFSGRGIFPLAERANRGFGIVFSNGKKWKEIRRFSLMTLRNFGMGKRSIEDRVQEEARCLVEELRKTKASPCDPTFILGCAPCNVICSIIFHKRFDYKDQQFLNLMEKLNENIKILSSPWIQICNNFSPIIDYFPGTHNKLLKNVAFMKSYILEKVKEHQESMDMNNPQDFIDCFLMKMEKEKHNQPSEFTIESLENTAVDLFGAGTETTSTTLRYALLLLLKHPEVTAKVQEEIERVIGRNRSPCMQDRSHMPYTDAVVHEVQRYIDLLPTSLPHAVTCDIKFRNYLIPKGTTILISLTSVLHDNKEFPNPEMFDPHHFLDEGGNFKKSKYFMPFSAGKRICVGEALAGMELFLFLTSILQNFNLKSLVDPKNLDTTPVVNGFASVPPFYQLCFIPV
structure (smiles),measurement,setting,value
COCCCOc1cc(C[C@@H](C[C@H](N)[C@@H](O)C[C@H](C(=O)NCC(C)(C)C(N)=O)C(C)C)C(C)C)ccc1OC,inhibition at 200 µM,CYP2C9 [1],32.1%
same,inhibition at 20 µM,CYP2C9 [2],1.3%
same,inhibition at 200 µM,CYP2A6,2.6%
same,inhibition at 200 µM,CYP2C19,9.6%
same,Compound recovery,[3],79.8%
COCCCOc1cc(C[C@@H](C[C@H](N)[C@@H](O)C[C@H](C(=O)NCC([14CH3])([14CH3])C(N)=O)C(C)C)C(C)C)ccc1OC.O=C(O)/C=C/C(=O)O,Radiolabel recovery,[4],OUTCOME = Detected
same,AUC normalised,[5],52.92 (umol.h/L)/(mg/kg)
same,Cmax,[6],2170 nM
same,Radiolabel recovery,[7],2.96%
same,Radiolabel recovery,[8],0.04%
same,Radiolabel recovery,[9],"OUTCOME = Observed, VALUE = Elimination of aliskiren occurred mainly via the biliary or faecal route"
same,Cmax,[10],1090 nM
same,Radiolabel recovery,[11],"OUTCOME = Observed, VALUE = Elimination of aliskiren occurred mainly via the biliary or faecal route"
same,Radiolabel recovery,[12],16.2%
same,Radiolabel recovery,[13],2.22%
same,Radiolabel recovery,[14],0.01%
COCCCOc1cc(C[C@@H](C[C@H](N)[C@@H](O)C[C@H](C(=O)NCC(C)(C)C(N)=O)C(C)C)C(C)C)ccc1OC.COCCCOc1cc(C[C@@H](C[C@H](N)[C@@H](O)C[C@H](C(=O)NCC(C)(C)C(N)=O)C(C)C)C(C)C)ccc1OC.O=C(O)/C=C/C(=O)O [ALISKIREN FUMARATE],AUC normalised,[15],1.09 ((ug.h.ml-1)/(mg/kg)
same,BUN_CHANGE_BY,[16],69%
same,AUC,[17],96.4 ng·h/mL
same,Cmax,[18],6.2 ng/mL
same,Change in spermatogenesis,[19],OUTCOME = No abnormalities. No animals died during the study.
same,AUC(0-t) at 24 h,[20],76400 ng·h/mL
same,Cmax,[21],167 ng/mL
same,Cmax normalised,[22],0.673 (ug/ml)/(mg/kg)
same,Tmax,[23],4.98 min
same,Change in spermatogenesis,[24],OUTCOME = No abnormalities. No animals died during the study.
same,Tmax,[25],4.98 min
same,inhibition at 100 µM,hERG (KCNH2),6%
same,half-life,[26],36 h
same,Tmax,[27],246 min
same,AUC normalised,[28],2.28 ((ng/mL).hours)/(mg/kg/day)
same,AUC(0-inf),[29],103000 ng·h/mL
same,Tmax,[30],15 min
